Assay results published in patent publication US9133220B2, “Boron-containing 5-arylidene-3,5-dihydro-4H-imidazol-4-ones” (Evrogen Joint Stock Company, priority 2012, dated 2015).
Values joined by “and” are separate entries in the source; they are usually repeats but may differ in a detail not shown here. Equal entries are not always repeated.

What was measured:
[1] = test system: cell membranes of HeLa Kyoto and HEK293 cell lines; assay: Staining of cell membranes and comparison of photostability with EGFP; type: cell-based, human
Procedure: Human cell cultures HeLa and HEK293 were grown in standart conditions and analyzed by wide field fluorescent and confocal laser scanning microscopy (excitation at 488 nm, detection at 500-540 nm).
The cell staining of the cells, temporarily expressing chimer protein EGFP-XRCC (nuclear localization), was carried out by p-diethylamino-BDI-BF2 in concentration 5 μM to compare fluorescent properties of the compound p-diethylamino-BDI-BF2 to the green fluorescent protein EGFP.

[2] = Measuring spectral characteristics (absorption and emission maxima, extinction coefficients); type: physicochemical; conditions: excitation at 488 nm, detection at 500-540 nm
[3] = as above; type: physicochemical
Procedure: (§1) To measure spectral characteristics of some compounds with the formula I weighted portions of compounds p-NH2-BDI-BF2, p-dimethylamino-BDI-BF2, p-diethylamino-BDI-BF2, p-HOBDI-BF2, di-F-p-HOBDI-BF2, p-diethylamino-BDI-dimethylaminoethenyl-BF2 and p-HOBDI-dimethylaminoethenyl-BF2 were dissolved in water, ethanol and acetonitrile. Absorption spectra were measured on Varian Cary 100 Bio spectrophotometer, fluorescence spectra were measured on Varian Cary Eclipse scanning spectrofluorometer.
The values of absorption and emission maxima and molar extinction coefficients for examples of compounds with the formula I in the indicated solvents are listed in a Table 2. Emission peaks of the investigated compounds settle into a rather wide range from 485 nm for p-HOBDI-BF2 to 598 nm for p-diethylamino-BDI-dimethylamino-ethenyl-BF2.

[4] = Quantum yield of fluorescence; type: physicochemical
Procedure: as §1
The compounds p-NH2-BDI-BF2, p-HOBDI-BF2 (anionic form), di-Fp-HOBDI-BF2 (anionic form), p-diethylamino-BDI-dimethylaminoethenyl-BF2, p-HOBDI-dimethylaminoethenyl-BF2 (anionic form) have rather high quantum yields of fluorescence in water solutions.

In the case of `CCN(CC)c1ccc(/C=C2\N=C(C)N(C)C2=O)c(B(F)F)c1` [p-diethylamino-BDI-BF2, (Z)-4-(4-(diethylamino)-2-(difluoroboryl)benzylidene)-1,2-dimethyl-1H-imidazole-5(4H)-one], the “accumulation in cell membranes” value [1] is reported as “accumulated in cell membranes”, the “fluorescence after addition to the cell medium” value ([1]; 1-5 μM, excitation 488 nm, detection 500-540 nm) is reported as “bright yellow-green fluorescence was detected, associated with intracellular membrane structues and lipid drops” and the “difference in the brightness of fluorescence in water and organic phases” value [2] is reported as “more than 10 times”. The “shift of emission and absorption spectra with change of more polar solvent (water) to less polar (ethanol, acetonitrile)” value [3] was “hypsochromic shift”, the Abs. peak ([3]; acetonitrile) was 493 nm and the Emis. peak ([3]; acetonitrile) was 553 nm. For the same molecule, the ext. coef. ([3]; acetonitrile) was 54000 M⁻¹ cm⁻¹, the Abs. peak ([3]; ethanol) was 506 nm and the Emis. peak ([3]; ethanol) was 558 nm. For the same molecule, the ext. coef. ([3]; ethanol) was 59000 M⁻¹ cm⁻¹, the Abs. peak ([3]; water) was 518 nm and 514 nm and the Emis. peak ([3]; water) was 562 nm. The ext. coef. ([3]; water) was 54000 M⁻¹ cm⁻¹, the “Quantum yield of fluorescence” value ([4]; acetonitrile) was 0.34 and the “Quantum yield of fluorescence” value ([4]; ethanol) was 0.22. For the same molecule, the “Quantum yield of fluorescence” value ([4]; in organic solvents) was 0.2-0.35 and the “Quantum yield of fluorescence” value ([4]; water) was 0.05.
